Data published in ChEMBL document CHEMBL6134864, “Discovery of FLT3-ITD Inhibitor Clifutinib: A Novel Biphenylacetylene Urea Derivative in Clinical Trials for the Treatment of Relapsed/Refractory FLT3-ITD+ Acute Myeloid Leukemia” (J Med Chem, 2025).

Experiments:
[1] = tested on: MV4-11; assay: cells; conditions: Homo sapiens, MV4-11, 72 h
Description: Antiproliferative activity against human MV4-11 cells assessed as inhibition of cell growth incubated for 72 hrs by celltiter-glo luminescent cell viability assay

[2] = Half life in rat plasma at 5 mg/kg, po measured up to 24 hrs by LC-MS/MS analysis; format: ADME, organism-based
[3] = Clearance in rat plasma at 5 mg/kg, po measured up to 24 hrs by LC-MS/MS analysis; format: ADME, organism-based
[4] = Cmax in rat plasma at 5 mg/kg, po measured up to 24 hrs by LC-MS/MS analysis; format: ADME, organism-based
[5] = AUClast in rat plasma at 5 mg/kg, po measured up to 24 hrs by LC-MS/MS analysis; format: ADME, organism-based
[6] = Oral bioavailability in rat plasma at 5 mg/kg measured up to 24 hrs by LC-MS/MS analysis; format: ADME, organism-based
[7] = tested on: MOLM-13; assay: Antitumor activity against human MOLM-13 cells xenografted in NOD/SCID mouse model assessed as tumor growth inhibition at 50 mg/kg/day, po by caliper analysis relative to control; format: functional; conditions: read-out: TGI
[8] = molecular target: hERG (KCNH2) (Homo sapiens, UniProt Q12809); assay: Inhibition of human ERG expressed in CHO cells at 30 uM by manual patch clamp assay relative to control; format: toxicity, cell-based; conditions: CHO cells expressing human ERG
[9] = tested on: BaF3; assay: Antiproliferative activity against mouse BaF3 cells harbouring FLT3-ITD assessed as inhibition of cell growth incubated for 72 hrs by celltiter-glo luminescent cell viability assay; format: functional, cell-based; conditions: BaF3, 72 h
[10] = tested on: BaF3; assay: Antiproliferative activity against mouse BaF3 cells harbouring FLT3-ITD-D835Y mutant assessed as inhibition of cell growth incubated for 72 hrs by celltiter-glo luminescent cell viability assay; format: functional, cell-based; conditions: BaF3, 72 h
[11] = tested on: BaF3; assay: Antiproliferative activity against mouse BaF3 cells harbouring FLT3-ITD-D835V mutant assessed as inhibition of cell growth incubated for 72 hrs by celltiter-glo luminescent cell viability assay; format: functional, cell-based; conditions: BaF3, 72 h
[12] = tested on: BaF3; assay: Antiproliferative activity against mouse BaF3 cells harbouring FLT3-ITD-D835I mutant assessed as inhibition of cell growth incubated for 72 hrs by celltiter-glo luminescent cell viability assay; format: functional, cell-based; conditions: BaF3, 72 h
[13] = tested on: BaF3; assay: Antiproliferative activity against mouse BaF3 cells harbouring FLT3-ITD-N676D mutant assessed as inhibition of cell growth incubated for 72 hrs by celltiter-glo luminescent cell viability assay; format: functional, cell-based; conditions: BaF3, 72 h
[14] = tested on: BaF3; assay: Antiproliferative activity against mouse BaF3 cells harbouring FLT3-ITD-Y842H mutant assessed as inhibition of cell growth incubated for 72 hrs by celltiter-glo luminescent cell viability assay; format: functional, cell-based; conditions: BaF3, 72 h
[15] = tested on: BaF3; assay: Antiproliferative activity against mouse BaF3 cells harbouring FLT3-ITD-Y842R mutant assessed as inhibition of cell growth incubated for 72 hrs by celltiter-glo luminescent cell viability assay; format: functional, cell-based; conditions: BaF3, 72 h
[16] = tested on: BaF3; assay: Antiproliferative activity against mouse BaF3 cells harbouring FLT3-ITD-F691L mutant assessed as inhibition of cell growth incubated for 72 hrs by celltiter-glo luminescent cell viability assay; format: functional, cell-based; conditions: BaF3, 72 h
[17] = tested on: BaF3; assay: Antiproliferative activity against mouse BaF3 cells harbouring FLT3-ITD-F691I mutant assessed as inhibition of cell growth incubated for 72 hrs by celltiter-glo luminescent cell viability assay; format: functional, cell-based; conditions: BaF3, 72 h
[18] = tested on: BaF3; assay: Antiproliferative activity against mouse BaF3 cells harbouring FLT3-D835Y mutant assessed as inhibition of cell growth incubated for 72 hrs by celltiter-glo luminescent cell viability assay; format: functional, cell-based; conditions: BaF3, 72 h
[19] = tested on: BaF3; assay: Antiproliferative activity against mouse BaF3 cells harbouring FLT3-D835V mutant assessed as inhibition of cell growth incubated for 72 hrs by celltiter-glo luminescent cell viability assay; format: functional, cell-based; conditions: BaF3, 72 h
[20] = tested on: BaF3; assay: Antiproliferative activity against wild type mouse BaF3 cells assessed as inhibition of cell growth incubated for 72 hrs by celltiter-glo luminescent cell viability assay; format: functional, cell-based; conditions: BaF3, 72 h
[21] = Antitumor activity against human […] cells harbouring FLT3-ITD xenografted in NOD/SCID mouse model assessed as tumor regression rate at 20 mg/kg/day, po measured for 8 days by caliper analysis relative to control; format: functional, MV4-11; conditions: time 8 day
[22] = tested on: BaF3; assay: cells; conditions: Mus musculus, BaF3, 72 h
[23] = tested on: BaF3; assay: cells; conditions: Mus musculus, BaF3, 72 h; remark: listed apart in the source
[24] = tested on: BaF3; assay: cells; conditions: Mus musculus, BaF3, 72 h; remark: listed apart in the source
[25] = tested on: BaF3; assay: cells; conditions: Mus musculus, BaF3, 72 h; remark: listed apart in the source
[26] = tested on: BaF3; assay: cells; conditions: Mus musculus, BaF3, 72 h; remark: listed apart in the source
[27] = tested on: BaF3; assay: cells; conditions: Mus musculus, BaF3, 72 h; remark: listed apart in the source
Description: Antiproliferative activity against mouse BaF3 cells harbouring FLT3-D83HY mutant assessed as inhibition of cell growth incubated for 72 hrs by celltiter-glo luminescent cell viability assay

Chain of hERG (KCNH2) (Q12809 whole entry): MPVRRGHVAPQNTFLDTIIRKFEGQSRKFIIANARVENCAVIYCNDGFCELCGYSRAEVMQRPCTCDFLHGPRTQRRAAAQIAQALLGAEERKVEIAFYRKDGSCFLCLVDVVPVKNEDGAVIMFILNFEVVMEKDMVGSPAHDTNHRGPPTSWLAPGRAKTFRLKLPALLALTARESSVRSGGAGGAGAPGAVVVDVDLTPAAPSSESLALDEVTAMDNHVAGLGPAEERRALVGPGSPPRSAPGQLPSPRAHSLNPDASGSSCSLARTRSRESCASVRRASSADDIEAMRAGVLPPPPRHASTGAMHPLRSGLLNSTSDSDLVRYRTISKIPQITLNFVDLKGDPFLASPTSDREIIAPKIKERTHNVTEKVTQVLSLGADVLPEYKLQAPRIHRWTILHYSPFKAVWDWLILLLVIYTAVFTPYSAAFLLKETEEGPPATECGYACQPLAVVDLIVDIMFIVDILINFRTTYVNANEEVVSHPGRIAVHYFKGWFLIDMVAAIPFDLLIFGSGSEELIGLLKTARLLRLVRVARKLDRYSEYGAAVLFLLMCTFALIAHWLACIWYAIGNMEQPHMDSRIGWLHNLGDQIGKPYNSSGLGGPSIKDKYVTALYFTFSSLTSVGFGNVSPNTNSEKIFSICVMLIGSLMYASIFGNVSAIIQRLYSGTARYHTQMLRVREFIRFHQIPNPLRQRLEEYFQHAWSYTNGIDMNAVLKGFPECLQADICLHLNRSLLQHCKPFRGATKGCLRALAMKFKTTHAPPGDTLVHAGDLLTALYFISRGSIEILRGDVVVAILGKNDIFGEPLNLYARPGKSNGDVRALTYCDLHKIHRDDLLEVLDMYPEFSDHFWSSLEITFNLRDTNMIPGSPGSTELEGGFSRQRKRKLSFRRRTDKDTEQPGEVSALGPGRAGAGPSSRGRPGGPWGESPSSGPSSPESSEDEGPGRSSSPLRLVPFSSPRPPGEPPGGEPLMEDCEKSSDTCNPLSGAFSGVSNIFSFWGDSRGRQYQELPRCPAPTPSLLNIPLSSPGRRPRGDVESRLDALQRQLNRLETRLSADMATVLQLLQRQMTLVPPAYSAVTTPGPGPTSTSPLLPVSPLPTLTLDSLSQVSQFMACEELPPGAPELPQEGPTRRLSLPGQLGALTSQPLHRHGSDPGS

Compound | IC50 [1] | half-life [2] | CL/F [3] | Cmax [4] | AUC(0-t) at 24 h [5] | bioavailability [6] | other results
CC(C)(C)c1cc(NC(=O)Nc2ccc(C#Cc3ccc(OCCCN4CCOCC4)cc3Cl)cc2)no1 | 426 nM |  |  |  |  |  | 
CC(C)(C)c1cc(NC(=O)Nc2ccc(C#Cc3ccc(OCCCN4CCOCC4)c(C(F)(F)F)c3)cc2)no1 | 17.7 nM |  |  |  |  |  | 
CC(C)(C)c1cc(NC(=O)Nc2ccc(C#Cc3ccc(OCCCN4CCOCC4)c(F)c3)cc2)no1 | 4.6 nM |  |  |  |  |  | 
CC(C)(C)c1cc(NC(=O)Nc2ccc(C#Cc3ccc(OCCCN4CCOCC4)cc3)cc2C#N)no1 | > 1000 nM |  |  |  |  |  | 
CN(C)C1CCN(CCCOc2ccc(C#Cc3ccc(NC(=O)Nc4cc(C(C)(C)C)on4)cc3)cc2)CC1 | 8 nM |  |  |  |  |  | 
CC(C)(C)c1cc(NC(=O)Nc2ccc(C#Cc3ccc(OCCN4C[C@@H]5OCCO[C@@H]5C4)cc3)cc2)no1 | 1.1 nM | 234 min | 7.78 mL/min/kg | 862 ng/mL | 6770 ng·h/mL | 63.6% | 
Nc1ccn([C@@H]2O[C@H](CO)[C@@H](O)[C@@H]2O)c(=O)n1 [CYTARABINE] |  |  |  |  |  |  | inhibition in vivo at 50 mg/kg/day [7]: 36%
CN1CCN(CCCOc2ccc(C#Cc3ccc(NC(=O)Nc4cc(C(C)(C)C)on4)cc3)cc2)CC1 | 2.4 nM | 309 min | 44.8 mL/min/kg | 100 ng/mL | 756 ng·h/mL | 42% | 
CC(C)(C)c1cc(NC(=O)Nc2ccc(C#Cc3ccc(OCCCN4CCOCC4)c(Cl)c3)cc2)no1 | 9.8 nM |  |  |  |  |  | 
CC(C)(C)c1cc(NC(=O)Nc2ccc(C#Cc3ccc(OCCCN4CCOCC4)cc3)cc2F)no1 | 4.8 nM |  |  |  |  |  | 
CC(C)(C)c1cc(NC(=O)Nc2ccc(C#Cc3ccc(OCCCN4CCOCC4)cc3F)cc2)no1 | 5.2 nM | 352 min | 4.83 mL/min/kg | 1370 ng/mL | 11300 ng·h/mL | 69.3% | inhibition at 30 µM [8]: 36.3%
CC(C)(C)c1cc(NC(=O)Nc2ccc(C#Cc3ccc(OCCCN4CCOCC4)cc3)nc2)no1 | > 1000 nM |  |  |  |  |  | 
CN(C)C1CCN(CCOc2ccc(C#Cc3ccc(NC(=O)Nc4cc(C(C)(C)C)on4)cc3)cc2)CC1 | 34.4 nM |  |  |  |  |  | 
CN1CCN(CCOc2ccc(C#Cc3ccc(NC(=O)Nc4cc(C(C)(C)C)on4)cc3)cc2)CC1 | 1.6 nM | 124 min | 68.2 mL/min/kg | 133 ng/mL | 534 ng·h/mL | 48.4% | 
CC(C)(C)c1cc(NC(=O)Nc2ccc(C#Cc3ccc(OCCN4CCOCC4)cc3)cc2)no1 | 1.4 nM | 290 min | 22.8 mL/min/kg | 522 ng/mL | 1790 ng·h/mL | 49.2% | 
CC(C)(C)c1cc(NC(=O)Nc2ccc(C#Cc3ccc(OCCCN4CCOCC4)cc3O)cc2)no1 | 25.5 nM |  |  |  |  |  | 
CC(C)(C)c1cc(NC(=O)Nc2ccc(C#Cc3ccc(OCCCN4C[C@@H]5OCCO[C@@H]5C4)cc3)cc2)no1 | 3.1 nM |  |  |  |  |  | 
CC(C)(C)c1cc(NC(=O)Nc2ccc(C#Cc3ccc(OCCCN4CCC5(COC5)C4)cc3)cc2)no1 | 13.8 nM |  |  |  |  |  | 
CC(C)(C)c1cc(NC(=O)Nc2ccc(C#Cc3cnn4c(OCCCN5CCOCC5)ccnc34)cc2)no1 | 1.9 nM |  |  |  |  |  | 
COc1cc(C#Cc2ccc(NC(=O)Nc3cc(C(C)(C)C)on3)cc2)ccc1OCCCN1CCOCC1 | 0.8 nM | 213 min | 26.8 mL/min/kg | 194 ng/mL | 1270 ng·h/mL | 40.8% | 
CC(C)(C)c1cc(NC(=O)Nc2ccc(-c3cn4c(n3)sc3cc(OCCN5CCOCC5)ccc34)cc2)no1 [QUIZARTINIB] | 0.9 nM | 313 min | 7.33 mL/min/kg | 741 ng/mL | 6320 ng·h/mL | 57.6% | IC50 [9]: 0.8 nM; IC50 [10]: 36 nM; IC50 [11]: 112 nM; IC50 [12]: 280 nM; IC50 [13]: 5.5 nM; IC50 [14]: 28.8 nM; IC50 [15]: 20.8 nM; IC50 [16]: 102 nM; IC50 [17]: 136 nM; IC50 [18]: 3.6 nM; IC50 [19]: 28.7 nM; IC50 [20]: > 1000 nM; Activity [21]: 88.6%; IC50 [22]: 3.1 nM; IC50 [23]: 4.1 nM; IC50 [24]: 73.1 nM; IC50 [25]: 1.6 nM; IC50 [26]: 23.2 nM; IC50 [27]: 7.1 nM
COc1cc(C#Cc2ccc(OCCCN3CCOCC3)cc2)ccc1NC(=O)Nc1cc(C(C)(C)C)on1 | 551 nM |  |  |  |  |  | 
CC(C)(C)c1cc(NC(=O)Nc2ccc(C#Cc3ccc(OCCCN4CCOCC4)c(O)c3)cc2)no1 | 0.9 nM |  |  |  |  |  | 
